Test [1] addresses Cytoplasmic tyrosine-protein kinase BMX (Homo sapiens) (UniProt P51813). The test is described as follows: Inhibition of wild-type human full length BMX (M1 to H675 residues) expressed in bacterial expression system assessed as residual activity at 1 uM by Kinomescan method relative to control.
Test [2] has as its target Serine/threonine-protein kinase SIK2 (Homo sapiens) (UniProt Q9H0K1). In words: Inhibition of wild-type human full length SIK2 (M1 to N926 residues) expressed in bacterial expression system assessed as residual activity at 1 uM by Kinomescan method relative to control.
In test [3] the target is Nuclear receptor subfamily 1 group I member 2 (Homo sapiens, UniProt O75469). The test is described as follows: Inhibition of human PXR.
Nuclear receptor subfamily 1 group I member 2, sequence (O75469 whole entry, the tested form may be a part): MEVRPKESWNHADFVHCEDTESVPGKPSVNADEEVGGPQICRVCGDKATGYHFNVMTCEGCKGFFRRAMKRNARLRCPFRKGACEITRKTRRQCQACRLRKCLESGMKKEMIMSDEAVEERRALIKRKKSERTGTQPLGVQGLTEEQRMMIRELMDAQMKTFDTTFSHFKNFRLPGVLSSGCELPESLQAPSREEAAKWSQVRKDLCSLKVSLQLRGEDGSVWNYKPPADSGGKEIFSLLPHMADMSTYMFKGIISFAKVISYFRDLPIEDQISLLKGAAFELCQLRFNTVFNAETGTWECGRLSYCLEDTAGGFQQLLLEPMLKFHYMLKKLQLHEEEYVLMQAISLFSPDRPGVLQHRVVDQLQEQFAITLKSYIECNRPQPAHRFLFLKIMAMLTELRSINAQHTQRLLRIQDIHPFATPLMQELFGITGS
Test [4] addresses Serine/threonine-protein kinase TBK1 (Homo sapiens) (UniProt Q9UHD2). The test is described as follows: Inhibition of wild-type human full length TBK1 (M1 to L729 residues) expressed in mammalian expression system assessed as residual activity at 1 uM by Kinomescan method relative to control.
The target in test [5] is Serine/threonine-protein kinase B-raf (Homo sapiens) (UniProt P15056). The test is described as follows: Inhibition of wild type human BRAF (S429 to E741 residues) expressed in bacterial expression system assessed as residual activity at 1 uM by Kinomescan method relative to control.
Test [6] deals with MAP/microtubule affinity-regulating kinase 4 (Homo sapiens) (UniProt Q96L34). In words: Inhibition of wild-type human partial length MARK4 (K29 to G340 residues) expressed in bacterial expression system assessed as residual activity at 1 uM by Kinomescan method relative to control.
In test [7] the target is Receptor tyrosine-protein kinase erbB-4 (Homo sapiens) (UniProt Q15303). In words: Inhibition of wild-type human partial length ERBB4 (L690 to K994 residues) expressed in bacterial expression system assessed as residual activity at 1 uM by Kinomescan method relative to control.
For test [8], the target named is Serine/threonine-protein kinase SIK1 (Homo sapiens) (UniProt P57059). In words: Inhibition of wild-type human partial length SIK1 (M1 to Y304 residues) expressed in bacterial expression system assessed as residual activity at 1 uM by Kinomescan method relative to control.
Test [9] concerns the target T1, Interleukin-1 receptor-associated kinase 4 (Homo sapiens) (UniProt Q9NWZ3).
T1 sequence (whole entry): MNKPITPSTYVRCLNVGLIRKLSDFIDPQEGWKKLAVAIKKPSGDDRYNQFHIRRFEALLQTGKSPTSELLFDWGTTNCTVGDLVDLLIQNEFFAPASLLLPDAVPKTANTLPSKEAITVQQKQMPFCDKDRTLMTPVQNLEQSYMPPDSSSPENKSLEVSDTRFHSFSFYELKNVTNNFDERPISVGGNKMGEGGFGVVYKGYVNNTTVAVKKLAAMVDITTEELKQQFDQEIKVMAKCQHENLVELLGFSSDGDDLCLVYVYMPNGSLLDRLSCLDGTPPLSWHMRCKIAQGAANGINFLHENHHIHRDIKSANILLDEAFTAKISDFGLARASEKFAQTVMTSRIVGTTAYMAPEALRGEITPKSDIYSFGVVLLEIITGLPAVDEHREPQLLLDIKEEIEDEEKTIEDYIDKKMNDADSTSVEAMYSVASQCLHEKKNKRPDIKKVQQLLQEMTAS
The test is described as follows: Inhibition of wild-type human partial length IRAK4 (M1 to S460 residues) expressed in mammalian expression system assessed as residual activity at 1 uM by Kinomescan method relative to control.

Test [10] addresses Serine/threonine-protein kinase ICK (Homo sapiens) (UniProt Q9UPZ9). The test is described as follows: Inhibition of wild-type human partial length ICK (M1 to P314 residues) expressed in mammalian expression system assessed as residual activity at 1 uM by Kinomescan method relative to control.
Test [11] addresses RAF proto-oncogene serine/threonine-protein kinase (Homo sapiens) (UniProt P04049). The test is described as follows: Inhibition of wild-type human partial length RAF1 (I330 to T640 residues) expressed in bacterial expression system assessed as residual activity at 1 uM by Kinomescan method relative to control.
The target in test [12] is Serine/threonine-protein kinase WNK2 (Homo sapiens) (UniProt Q9Y3S1). In words: Inhibition of wild-type human partial length WNK2 (V47 to D482 residues) expressed in mammalian expression system assessed as residual activity at 1 uM by Kinomescan method relative to control.
Test [13] has as its target Serine/threonine-protein kinase PLK2 (Homo sapiens) (UniProt Q9NYY3). In words: Inhibition of wild-type human partial length PLK2 (H58 to F354 residues) expressed in mammalian expression system assessed as residual activity at 1 uM by Kinomescan method relative to control.
Test [14] has as its target Serine/threonine-protein kinase 32C (Homo sapiens) (UniProt Q86UX6). In words: Inhibition of wild-type human partial length YANK3 (M68 to G486 residues) expressed in bacterial expression system assessed as residual activity at 1 uM by Kinomescan method relative to control.
Test [15] has as its target TGF-beta receptor type-1 (Homo sapiens) (UniProt P36897). In words: Inhibition of wild-type human partial length TGFBR1 (D179 to M503 residues) expressed in bacterial expression system assessed as residual activity at 1 uM by Kinomescan method relative to control.
Test [16] has as its target Epidermal growth factor receptor (Homo sapiens) (UniProt P00533). The test is described as follows: Inhibition of wild-type human partial length EGFR (R669 to V1011 residues) expressed in bacterial expression system assessed as residual activity at 1 uM by Kinomescan method relative to control.
Test [17] deals with Cytochrome P450 3A4 (Homo sapiens, UniProt P08684). In words: Inhibition of human CYP3A4. It is filed as ADME.
In test [18] the target is Calcium/calmodulin-dependent protein kinase type 1B (Homo sapiens) (UniProt Q6P2M8). The test is described as follows: Inhibition of wild-type human partial length CAMK1B (W9 to A311 residues) expressed in mammalian expression system assessed as residual activity at 1 uM by Kinomescan method relative to control.
Calcium/calmodulin-dependent protein kinase type 1B (Homo sapiens), sequence (Q6P2M8 whole entry, the tested form may be a part): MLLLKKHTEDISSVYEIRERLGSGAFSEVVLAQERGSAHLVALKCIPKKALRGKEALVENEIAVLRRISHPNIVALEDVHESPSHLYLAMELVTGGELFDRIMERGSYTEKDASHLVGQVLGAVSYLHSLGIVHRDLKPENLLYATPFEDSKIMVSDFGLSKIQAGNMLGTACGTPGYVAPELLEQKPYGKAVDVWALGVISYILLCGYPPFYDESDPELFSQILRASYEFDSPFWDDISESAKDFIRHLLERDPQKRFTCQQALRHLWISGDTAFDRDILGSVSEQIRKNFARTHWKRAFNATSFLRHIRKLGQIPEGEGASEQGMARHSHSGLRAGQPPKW
Test [19] addresses Ribosomal protein S6 kinase beta-1 (Homo sapiens) (UniProt P23443). In words: Inhibition of wild-type human partial length RPS6KB1 (M1 to S421 residues) expressed in mammalian expression system assessed as residual activity at 1 uM by Kinomescan method relative to control.
For test [20], the target named is Calcium/calmodulin-dependent protein kinase type II subunit alpha (Homo sapiens) (UniProt Q9UQM7). The test is described as follows: Inhibition of wild-type human partial length CAMK2A (M1 to K328 residues) expressed in bacterial expression system assessed as residual activity at 1 uM by Kinomescan method relative to control.
Test [21] addresses Dual specificity mitogen-activated protein kinase kinase 6 (Homo sapiens) (UniProt P52564). In words: Inhibition of MKK6 (unknown origin) assessed as residual activity at 1 uM by Kinomescan method relative to control.
For test [22], the target named is BDNF/NT-3 growth factors receptor (Homo sapiens) (UniProt Q16620). In words: Inhibition of wild-type human partial length TRKB (Q547 to G838 residues) expressed in mammalian expression system assessed as residual activity at 1 uM by Kinomescan method relative to control.
BDNF/NT-3 growth factors receptor (Homo sapiens), sequence (Q16620 32-822 limits assumed): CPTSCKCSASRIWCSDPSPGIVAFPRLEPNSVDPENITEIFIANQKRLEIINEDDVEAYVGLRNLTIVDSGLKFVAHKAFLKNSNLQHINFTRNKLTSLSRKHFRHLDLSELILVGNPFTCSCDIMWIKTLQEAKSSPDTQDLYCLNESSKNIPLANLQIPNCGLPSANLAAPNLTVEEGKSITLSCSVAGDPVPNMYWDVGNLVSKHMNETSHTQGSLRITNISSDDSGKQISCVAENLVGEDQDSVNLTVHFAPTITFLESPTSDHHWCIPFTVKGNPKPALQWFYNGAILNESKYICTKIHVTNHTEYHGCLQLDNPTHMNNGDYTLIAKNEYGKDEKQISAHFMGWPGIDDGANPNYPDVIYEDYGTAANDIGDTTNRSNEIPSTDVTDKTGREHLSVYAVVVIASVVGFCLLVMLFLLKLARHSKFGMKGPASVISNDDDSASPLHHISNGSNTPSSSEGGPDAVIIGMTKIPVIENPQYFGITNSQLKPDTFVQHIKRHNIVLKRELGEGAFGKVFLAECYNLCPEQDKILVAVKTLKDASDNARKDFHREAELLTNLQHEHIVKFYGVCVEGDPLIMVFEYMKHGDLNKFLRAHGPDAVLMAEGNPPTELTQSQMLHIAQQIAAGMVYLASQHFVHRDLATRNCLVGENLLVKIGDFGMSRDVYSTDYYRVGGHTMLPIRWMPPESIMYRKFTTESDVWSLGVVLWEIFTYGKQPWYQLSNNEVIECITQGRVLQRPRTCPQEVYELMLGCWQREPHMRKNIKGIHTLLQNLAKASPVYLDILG
Test [23] has as its target Serine/threonine-protein kinase 24 (Homo sapiens) (UniProt Q9Y6E0). The test is described as follows: Inhibition of wild-type human partial length MST3 (A30 to S311 residues) expressed in bacterial expression system assessed as residual activity at 1 uM by Kinomescan method relative to control.

Ribosomal protein S6 kinase beta-1 (Homo sapiens), sequence (P23443 whole entry, looked up, the tested form may be a part): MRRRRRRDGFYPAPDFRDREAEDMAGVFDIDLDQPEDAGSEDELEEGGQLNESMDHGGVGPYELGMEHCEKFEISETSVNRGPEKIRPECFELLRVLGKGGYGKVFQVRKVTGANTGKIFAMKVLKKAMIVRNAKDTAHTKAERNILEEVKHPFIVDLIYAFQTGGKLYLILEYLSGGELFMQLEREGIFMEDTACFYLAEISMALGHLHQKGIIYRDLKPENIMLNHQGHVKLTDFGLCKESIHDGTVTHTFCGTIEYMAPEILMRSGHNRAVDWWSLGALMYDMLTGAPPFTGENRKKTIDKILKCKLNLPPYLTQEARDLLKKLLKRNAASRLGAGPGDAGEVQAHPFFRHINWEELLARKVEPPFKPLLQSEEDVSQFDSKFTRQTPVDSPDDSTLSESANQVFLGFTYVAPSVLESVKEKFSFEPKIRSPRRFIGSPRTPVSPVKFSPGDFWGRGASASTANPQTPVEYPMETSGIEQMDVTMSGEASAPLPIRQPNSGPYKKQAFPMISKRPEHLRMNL
Serine/threonine-protein kinase 24 (Homo sapiens), sequence (Q9Y6E0 whole entry, looked up, the tested form may be a part): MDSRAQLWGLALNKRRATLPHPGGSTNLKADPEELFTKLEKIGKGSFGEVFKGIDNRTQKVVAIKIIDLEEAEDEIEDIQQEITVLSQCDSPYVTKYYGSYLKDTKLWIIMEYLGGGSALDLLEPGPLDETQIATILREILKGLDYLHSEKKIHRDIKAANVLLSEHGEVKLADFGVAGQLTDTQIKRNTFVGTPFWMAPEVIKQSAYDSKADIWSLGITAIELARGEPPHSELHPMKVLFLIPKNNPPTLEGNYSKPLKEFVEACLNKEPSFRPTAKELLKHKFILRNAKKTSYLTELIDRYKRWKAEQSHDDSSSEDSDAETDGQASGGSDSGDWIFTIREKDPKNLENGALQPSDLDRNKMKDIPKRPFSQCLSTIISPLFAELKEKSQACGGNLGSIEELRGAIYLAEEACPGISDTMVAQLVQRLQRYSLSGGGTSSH
Cytoplasmic tyrosine-protein kinase BMX (Homo sapiens), sequence (P51813 whole entry, the tested form may be a part): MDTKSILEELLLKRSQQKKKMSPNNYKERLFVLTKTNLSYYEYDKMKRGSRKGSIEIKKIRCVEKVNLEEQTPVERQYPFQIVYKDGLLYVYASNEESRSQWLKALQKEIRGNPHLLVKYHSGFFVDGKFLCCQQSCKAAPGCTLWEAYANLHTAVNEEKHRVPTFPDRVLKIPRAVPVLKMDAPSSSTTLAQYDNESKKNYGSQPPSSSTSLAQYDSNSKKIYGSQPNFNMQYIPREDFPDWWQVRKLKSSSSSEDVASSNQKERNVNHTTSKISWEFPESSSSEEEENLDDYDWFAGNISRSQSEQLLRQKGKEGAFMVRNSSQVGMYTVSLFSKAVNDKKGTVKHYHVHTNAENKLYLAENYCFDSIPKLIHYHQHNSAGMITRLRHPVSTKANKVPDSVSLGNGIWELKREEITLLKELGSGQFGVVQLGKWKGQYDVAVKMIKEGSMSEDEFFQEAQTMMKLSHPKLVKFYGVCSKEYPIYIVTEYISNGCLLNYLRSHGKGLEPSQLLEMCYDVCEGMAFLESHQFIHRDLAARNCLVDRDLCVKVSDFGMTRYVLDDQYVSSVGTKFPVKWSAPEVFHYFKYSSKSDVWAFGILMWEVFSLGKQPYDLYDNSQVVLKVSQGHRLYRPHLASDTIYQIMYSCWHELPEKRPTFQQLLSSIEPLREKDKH
Serine/threonine-protein kinase 32C (Homo sapiens), sequence (Q86UX6 whole entry, the tested form may be a part): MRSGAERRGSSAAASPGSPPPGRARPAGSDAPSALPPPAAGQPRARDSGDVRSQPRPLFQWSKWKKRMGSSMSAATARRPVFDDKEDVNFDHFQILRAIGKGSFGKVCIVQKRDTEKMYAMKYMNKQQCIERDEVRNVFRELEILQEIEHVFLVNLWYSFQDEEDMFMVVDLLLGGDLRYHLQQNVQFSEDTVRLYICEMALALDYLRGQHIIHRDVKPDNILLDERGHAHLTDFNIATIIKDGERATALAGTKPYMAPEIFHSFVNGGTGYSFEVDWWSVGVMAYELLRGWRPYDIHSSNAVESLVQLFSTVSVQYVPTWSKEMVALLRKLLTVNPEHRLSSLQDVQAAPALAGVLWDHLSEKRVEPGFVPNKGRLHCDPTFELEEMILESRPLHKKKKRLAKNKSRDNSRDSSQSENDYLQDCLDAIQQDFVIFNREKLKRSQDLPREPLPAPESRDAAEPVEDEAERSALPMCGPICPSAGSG
Epidermal growth factor receptor (Homo sapiens), sequence (P00533 whole entry, the tested form may be a part): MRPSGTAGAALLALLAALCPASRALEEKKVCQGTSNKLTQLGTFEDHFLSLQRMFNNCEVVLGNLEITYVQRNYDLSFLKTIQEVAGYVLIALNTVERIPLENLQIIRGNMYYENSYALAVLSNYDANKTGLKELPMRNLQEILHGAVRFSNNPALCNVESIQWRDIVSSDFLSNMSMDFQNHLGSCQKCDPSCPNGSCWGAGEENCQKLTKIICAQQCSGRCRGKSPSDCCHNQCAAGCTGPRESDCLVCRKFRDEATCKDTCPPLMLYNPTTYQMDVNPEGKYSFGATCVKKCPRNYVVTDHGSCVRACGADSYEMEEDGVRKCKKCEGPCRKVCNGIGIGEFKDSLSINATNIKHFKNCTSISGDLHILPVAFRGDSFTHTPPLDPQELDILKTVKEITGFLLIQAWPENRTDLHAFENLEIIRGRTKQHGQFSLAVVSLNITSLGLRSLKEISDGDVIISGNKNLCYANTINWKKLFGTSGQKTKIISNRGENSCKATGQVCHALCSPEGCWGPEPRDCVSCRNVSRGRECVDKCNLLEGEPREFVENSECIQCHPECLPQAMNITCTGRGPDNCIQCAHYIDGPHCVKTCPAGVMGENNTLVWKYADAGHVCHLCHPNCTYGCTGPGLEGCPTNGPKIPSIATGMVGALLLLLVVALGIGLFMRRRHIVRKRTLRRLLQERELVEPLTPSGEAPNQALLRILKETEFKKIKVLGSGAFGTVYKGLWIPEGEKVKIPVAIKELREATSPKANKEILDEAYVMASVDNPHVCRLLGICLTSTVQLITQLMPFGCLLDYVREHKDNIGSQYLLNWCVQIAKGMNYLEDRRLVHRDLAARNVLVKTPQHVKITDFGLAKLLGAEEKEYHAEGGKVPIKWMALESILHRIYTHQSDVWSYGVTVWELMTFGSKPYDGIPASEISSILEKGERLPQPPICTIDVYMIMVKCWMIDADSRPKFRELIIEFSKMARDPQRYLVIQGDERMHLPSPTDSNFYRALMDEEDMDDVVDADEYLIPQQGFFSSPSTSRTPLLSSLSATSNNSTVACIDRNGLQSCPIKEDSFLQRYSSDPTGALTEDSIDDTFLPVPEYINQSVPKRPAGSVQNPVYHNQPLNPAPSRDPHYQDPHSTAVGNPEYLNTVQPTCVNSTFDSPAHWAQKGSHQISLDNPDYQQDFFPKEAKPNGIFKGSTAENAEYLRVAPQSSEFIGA

`CCOc1nc(Nc2ccc(C(=O)N3CCOCC3)cc2OC)nc2[nH]ccc12`: the Activity came out at 92.5% in [1]; 97% in [2]; 91.7% in test [4]; 88% in test [5]; 101% in test [6]; 101% in test [7]. Besides, the Activity was determined as 101% in test [8]; 104% in test [9]; 104% in [10]; 97.5% in test [11]; 90.4% in test [12]; 89.4% in [13]. Besides, the Activity in test [14] worked out at 107%; in test [15], 96.6%; in test [16] it was 99.6%; in [18], 117%; in test [19], 104%; in test [20], 214%. In addition, the Activity turned out to be 63.1% in test [21], 102% in [22] and 97.4% in [23]. For the same compound, in test [3], the concentration giving a half-maximal response (EC50) is > 50.1 µM. The same compound showed an IC50 in test [17] of 158 µM.

For orientation: EC50 means the midpoint of the concentration-response curve. Broadly, the IC50 is the concentration that inhibits the measured activity by half. Read a high IC50 as a need for much substance.
